Experimental data published in publication PMC6748671, “Distribution of Small Molecular Weight Drugs into the Porcine Lens: Studies on Imaging Mass Spectrometry, Partition Coefficients, and Implications in Ocular Pharmacokinetics” (Molecular Pharmaceutics, 2019).
Where two headings read alike, the source gives them in different places. Blank lines part the entries; values can stand above or below the compound they belong to.

What was measured:
[1] = design: method as in PMID 1898917; settings: highest Kp of previous reports; cited from earlier work
[2] = pH 7.0; cited from earlier work
[3] = cited from earlier work
[4] = In vitro lens/buffer partition coefficient (Kp), isolated porcine lens, cassette mix, LC–MS/MS; settings: for Kp at 4 h: pig, isolated porcine lens
[5] = design: method as in PMID 2724118; settings: lowest Kp of previous reports; cited from earlier work
[6] = design: method as in PMID 7341754, PMID 2724118; settings: in rabbit and human; cited from earlier work
[7] = Drug distribution in the porcine lens by MALDI-IMS; settings: for share of total lens volume into which the drugs distributed: pig, 4 h; for distribution pattern in the lens (MALDI-IMS): porcine lens, 4 h in vitro incubation
Method: After 4 h, the buffer was removed from the vials and the lenses were rinsed with HBSS–HEPES and gently blotted dry. The lenses were weighed, snap-frozen with liquid nitrogen in flat-bottomed plastic tubes, and then stored at −80 °C until sample preparation and analysis with MALDI-IMS. For the experiment, a smaller set of 16 drugs was used.
The frozen lenses were mounted onto a chuck using an optimal cutting temperature compound (Sakura Finetek, CA, USA) on the equatorial side. The lenses were sectioned to 10 μm thickness at −20 °C on a Leica CM Cryostat (S3050, Leica Microsystems GmbH, Germany), equipped with a FEATHER Microtome C35 blade (pfm medical, UK), and collected on a cryofilm (3C16UF, SECTION-LAB Co. Ltd. Yokohama, Japan) by modified Kawamoto method.[23] The film was subsequently mounted onto a microscopy glass slide using a double-sided copper tape. The slides were washed twice with 50 mM ammonium formate for 30 s and dried in a vacuum desiccator. The sample slides contained three lens sections from the drug mixture experiment and three blanks. […] Matrix α-cyano-4-hydroxycinnamic acid (7 mg/mL in 50% acetonitrile containing 1% trifluoro acetic acid) (Sigma-Aldrich, St. Louis, MO, USA) was added via spray deposition using 10 passes, flow rate of 100 μL/min, temperature of 77 °C, track spacing of 2.5 mm, and velocity of 1300 mm/min (HTX Industries, TM-Sprayer, NC, USA).
MALDI Fourier transform-ion cyclotron resonance (FT-ICR)-IMS was performed using a Bruker 7T solariX XR mass spectrometer (Bruker Daltonics, Germany) at a 75 μm spatial resolution.
The drugs were identified as their [M + H]^+ ions. Peak finding was performed using mass error less than 2.5 ppm. MALDI images for each detected compound were plotted using a 0.01 μ mass window. From the images of the individual drugs, the intensity profiles across a 30 pixel (2.25 mm) wide area in anterior–posterior axis were plotted with ImageJ software (National Institutes of Health, USA).

[8] = in vitro; settings: pig
[9] = Pharmacokinetic simulation of topical timolol instillation with lens compartment; design: species or system rabbit
Method: A pharmacokinetic simulation model for rabbit was built for topical timolol instillation based on the model of Ranta et al.[25] The lens compartment, separate from the reservoir compartment, was added to the model (Figure 1). The unknown parameter values for timolol distribution clearance between aqueous humor and lens (QLENS), Kp, and clearance from tear fluid to cornea (CLTF,CO) were obtained by adjusting the values manually until the simulated concentration in the lens matched with in vivo data on timolol distribution to the rabbit lens.[26] Finally, the distribution clearance between the aqueous humor and the reservoir (QRESERVOIR) and the volume of the reservoir (VRESERVOIR) were adjusted to match the corresponding parameters in the original model. For details of the model building and parameters, see the Supporting Information. STELLA software (v8.1.1, isee systems) was used to construct the simulation model.
Kinetic simulations were carried out to estimate how drug partitioning into the lens might affect ocular pharmacokinetics after single and multiple doses of eye drops. […] The run time was 7 days and the delta time was 0.5 min.
Pharmacokinetic simulations
The pharmacokinetic simulation model was built on a model of topical timolol instillation4, where a lens compartment, separate from the reservoir compartment, was added . Experimental concentration -time data, extracted with Webplotdigitizer ( v4.2, https://automeris.io/WebPlotDig-itizer), in the aqueous humor and lens after topical dosing of timolol 5 was used as a basis for the […]
The timolol distribution clearance between aqueous humor and lens (QLENS), lens-buffer partition coefficient (Kp) and clearance from tear fluid to cornea (CL TF,CO) were obtained by com-paring the simulated curves with experimental in vivo data on timolol distribution in the rabbit […]
and QLENS values, the distribution clearance between aqueous humor and reservoir (QRESERVOIR) and volume of the reservoir (VRESERVOIR) were changed to match the corresponding parameters in the original model4 (Supplementary table 1).
Supplementary figure 6. Adjustment of the lens-aqueous humor partition coefficient (Kp), the clearance between aqueous humor and lens (QLENS) and clearance from tear fluid to cornea (CLTF,CO) with experimental data5.
(1 picture or pasted object on this page, not shown here)
Supplementary table 1. Parameters for the pharmacokinetic simulation model.

[10] = rabbit model parameter, cited from earlier work
[11] = rabbit, adjusted from original model
[12] = rabbit, adjusted with experimental in vivo data

Compound: CCCCCOc1ccc(C2SC(=O)NC2=O)cc1OCC (centres unmarked) [CT-112]
- lens Kp in previous reports [1]: 8

Compound: CCN(CC)c1ccc2c(-c3ccccc3C(=O)O)c3ccc(=[N+](CC)CC)cc-3oc2c1 [Rhodamine-B]
- experimental log D7.0 [2]: 2

Compound: C[C@@H]1C[C@H]2[C@@H]3CCC4=CC(=O)C=C[C@]4(C)[C@@]3(F)[C@@H](O)C[C@]2(C)[C@@]1(O)C(=O)CO [dexamethasone]
- concentration in the lens in vivo compared with aqueous humor, iris and ciliary body [3]: much lower

Compound: O=C(O)Cc1ccccc1Nc1c(Cl)cccc1Cl [diclofenac]
- concentration equilibrium between incubate and lens at 4 h ([4]; porcine lens in vitro, incubation time 4 h (Figure S7)): would have required longer incubation time to reach true equilibria

Compound: O=C1OC2(c3ccc(O)cc3Oc3cc(O)ccc32)c2ccccc21 [fluorescein sodium]
- experimental log D7.0 [2]: 0.1

Compound: CC[C@@H]1C(=O)OC[C@@H]1Cc1cncn1C [pilocarpine]
- lens Kp in previous reports [5]: about 0.3
- lens Kp, previous literature [6]: 0.3–1.0
- concentration in the lens in vivo compared with aqueous humor, iris and ciliary body [3]: much lower
- share of total lens volume into which the drugs distributed [7]: 27.1%
- distribution pattern in the lens (MALDI-IMS) [7]: only in the capsule and cortex of the lens but not in the nucleus
- Kp at 4 h [4]: 0.145

Compound: Rhodamine-123
- experimental log D7.0 [2]: 0.4

Further lines, with some results ahead:

- Kp at 4 h [4]: 0.047
Compound: CC(=O)/N=c1/sc(S(N)(=O)=O)nn1C [methazolamide]

- share of total lens volume into which the drugs distributed [7]: 27.1%
Compound: CC(C)NCC(O)COc1cccc2[nH]ccc12 (centres unmarked) [pindolol]

- Kp at 4 h [8]: 0.762
- share of total lens volume into which the drugs distributed [7]: 27.1%
Compound: CC(C)NCC(O)COc1cccc2ccccc12 (centres unmarked) [propranolol]

- QRESERVOIR (distribution clearance between aqueous humor and reservoir) [9, 11]: 11.888 µL/min
- VRESERVOIR (reservoir volume) [9, 11]: 262 µL
- CLTF,CO (clearance from tear fluid to cornea) [9, 12]: 1.3 µL/min
- QLENS (distribution clearance between aqueous humor and lens) [9, 12]: 0.6 µL/min
- Kp ([9]; topical, rabbit lens, adjusted manually to in vivo data on timolol distribution (Lee et al.), read-out: Kp (lens-buffer partition coefficient), model parameter): 0.35
Compound: CC(C)(C)NC[C@H](O)COc1nsnc1N1CCOCC1 [timolol]
- concentration in the lens in vivo compared with aqueous humor, iris and ciliary body [3]: much lower
- kel (elimination rate constant) ([10]; aqueous humor, ref SI 4, 8): 0.057 min⁻¹
- CLTF,CJ (clearance from tear fluid by conjunctival absorption) ([10]; ref SI 4, 7): 10.4 µL/min

- share of total lens volume into which the drugs distributed [7]: 27.1%
Compound: Clc1ccc2nsnc2c1NC1=NCCN1 [tizanidine]
- distribution pattern in the lens (MALDI-IMS) [7]: only in the capsule and cortex of the lens but not in the nucleus
